Molecular target: TRPV1 (Rattus norvegicus, UniProt O35433)
Assay: two-electrode voltage clamp in Xenopus oocytes injected with rat TRPV1 cRNA; inhibition of […] capsaicin current
Type: cell-based

Chain of TRPV1 (O35433 whole entry): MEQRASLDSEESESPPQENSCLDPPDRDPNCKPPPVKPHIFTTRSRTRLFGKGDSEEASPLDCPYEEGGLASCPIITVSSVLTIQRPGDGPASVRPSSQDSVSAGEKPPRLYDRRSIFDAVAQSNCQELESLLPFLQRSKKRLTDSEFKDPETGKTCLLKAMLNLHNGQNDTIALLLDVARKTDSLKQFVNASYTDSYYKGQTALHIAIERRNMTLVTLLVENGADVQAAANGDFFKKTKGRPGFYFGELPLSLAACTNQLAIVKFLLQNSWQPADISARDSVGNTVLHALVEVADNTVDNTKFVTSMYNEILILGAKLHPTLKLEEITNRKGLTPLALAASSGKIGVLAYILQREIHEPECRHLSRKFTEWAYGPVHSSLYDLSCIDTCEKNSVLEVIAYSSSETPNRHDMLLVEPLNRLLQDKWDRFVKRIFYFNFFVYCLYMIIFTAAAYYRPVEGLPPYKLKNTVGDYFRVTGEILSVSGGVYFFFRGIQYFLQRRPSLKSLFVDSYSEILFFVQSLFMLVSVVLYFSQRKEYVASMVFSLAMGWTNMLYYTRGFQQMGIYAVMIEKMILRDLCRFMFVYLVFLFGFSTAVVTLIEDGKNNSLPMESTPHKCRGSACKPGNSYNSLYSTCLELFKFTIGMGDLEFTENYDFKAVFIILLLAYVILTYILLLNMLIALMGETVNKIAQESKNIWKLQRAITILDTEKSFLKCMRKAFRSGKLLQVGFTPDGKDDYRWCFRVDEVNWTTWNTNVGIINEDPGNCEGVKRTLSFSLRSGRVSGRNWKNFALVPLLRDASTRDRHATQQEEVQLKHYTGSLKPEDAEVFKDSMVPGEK

LASSBio-1135
IC50: 0.58 µM

Reference: paper PMC4062389, “LASSBio-1135: A Dual TRPV1 Antagonist and Anti-TNF-Alpha Compound Orally Effective in Models of Inflammatory and Neuropathic Pain” (PLoS ONE, 2014)
